Results taken from patent US8404829B2, “Predictive and therapeutic markers in ovarian cancer” (The Regents of the University of California, priority 2005, dated 2013).
“Also recorded” adds a separate entry of the source.

How the values were obtained:
[1] = system: OV90, in which MYC and PVT1 are not amplified; cell lines not expressing PVT1; assay: Cell cycle / growth after siRNA treatment (BrdUrd/DNA distributions), unamplified lines; type: cell-based, human; conditions: for cell cycle progression (BrdUrd/DNA distributions): OV90 (unamplified), 48 hours after siRNA treatment, FIG. 7A
HEY and CAOV4 cells = assay: Apoptosis after siRNA treatment (phase contrast, PI DNA content distribution), PVT1 amplified lines; type: cell-based, human; conditions: for apoptosis induced DNA fragments (DNA distribution below the G1/diploid peak): CAOV4 cells, FIG. 9A; for induction of apoptosis / cell death: ovarian cancer cell lines in which PVT1 is amplified and over expressed
Protocol: (§1) In this system, stock cell lines are transferred from flasks and 5×10^4 cells will be seeded into 24-well cell culture plates and transferred to a multi-plate incubator. Individual wells are treated with 40-120 nM siRNA and 2.5-7.5 μg/ml Lipofectamine 2000 (Invitrogen) in […] Opti-MEM reduced serum medium (Invtrogen) for 4 hours (with or without drug) in order to induce the necessary experimental perturbations. After 4 hours, the Opti-MEM are replaced with complete culture medium and the cells cultured for an additional 44 hours. Cell lysates then are extracted and re-formatted into standard 96-well microtiter plates using a Tecan multi-channel liquid handling system. These plates are then fed separately into RNA transcript, protein expression or cell analysis pipelines. For cellular profiling, treated cell culture plates are transported to a Cellomics High Content Imaging system (see below). Transcript profiling is accomplished using Affymetrix U133A/B arrays processed using the Affymetrix High Throughput Analysis system (installed at LBNL in December 2004 under an Affymetrix early access agreement). Protein profiling is accomplished using reverse phase protein at MD Anderson using lysate array technology in cases where suitable antibodies exist. Important pathway proteins are assessed using western blotting in cases where antibodies are not sufficiently specific for use on protein lysate arrays.
(§2) A Becton Dickinson cytometer can be used to measure DNA/BrdUrd distributions and/or DNA distributions during treatment. […] For BrdUrd/DNA analysis, cells are pulse labeled for 30 min. with 1 μM BrdUrd, fixed in 70% ethanol, treated with RNase, denatured and stained with propidium iodide (PI) and a fluorescently labeled antibody against BrdUrd as described in Dolbeare, F., Gratzner, H., Pallavicini, M. G. & Gray, J. W. Flow cytometric measurement of total DNA content and incorporated bromodeoxyuridine. Proc Natl Acad Sci USA 80, 5573-7 (1983), and placed in 96 well trays for analysis.
Referring again to FIG. 8, an additional measure of apoptosis can include staining with an Alexa Fluor® 488 conjugate of annexin V (Molecular Probes) and staining with propidium iodide (PI). PI is impermeable to apoptotic cells and live cells, but can enter and bind nucleic acids in necrotic cells. An apoptotic index can be assessed by measuring the fraction of “sub diploid” cells after staining for DNA content using PI as illustrated in FIG. 8A. Cells are fixed in 70% ethanol, treated with RNAse and placed in 96-well trays for DNA content analysis.

[2] = system: CAOV4 and HEY cell lines in which PVT1 and MYC are highly amplified; assay: Cell cycle / proliferation after siRNA treatment (BrdUrd/DNA distributions), PVT1/MYC amplified lines; type: cell-based, human; conditions: for cell cycle progression (BrdUrd/DNA distributions): CAOV4 and HEY, 48 hours after siRNA treatment, FIG. 7A; for cell proliferation / G1-phase block: ovarian cancer cell lines in which PVT1 is amplified and over expressed
Protocol: as §1, §2
In FIGS. 7B and 7C, the BrdU data is measuring proportions of cell cycle phases of ovarian cancer cell lines that overexpress PVT1. Referring to the graphs in FIGS. 7B and 7C, cells were left untreated (control, blue bar), treated with lipofectamine 2000 (lipo, purple bar) and green fluorescent protein (GFP; green bar) as controls or treated with PVT1 siRNA (PVT1 si, yellow bar, SEQ ID NO: 3 and 4). The error bars are standard deviation values from more than one experiment. If there are no error bars on a column, it means the experiment was not repeated.

[3] = system: ovarian cancer cell lines that amplify PVT1; assay: High content imaging for apoptosis (Cellomics Multiparameter Apoptosis 1 HitKit), lines that amplify PVT1; type: cell-based, human
Source text: (§3) A high content fluorescence image analysis system at LBNL (Cellomics, KineticScan) was used to characterize cellular responses to siRNA inhibitors including proliferation rate, apoptotic rate and motility. The KineticScan is an automated imaging instrument that scans through the bottom of clear-bottom 24-well plates, focuses on a field of cells, and acquires images at each selected color channel. The Cellomics software identifies and measures individual features and structures within each cell in a field of cells, so that up to hundreds of cell samples can be analyzed in parallel. The software then tabulates and presents the results in user-defined formats.
(§4) Referring to FIG. 10, PVT siRNA-treated ovarian cell lines were analyzed by high content imaging for apoptosis. Apoptotic cells were detected based on nuclear morphology, mitochondrial mass and/or membrane potential, and f-actin content following staining with the Cellomics Multiparameter Apoptosis 1 HitKit™. Nuclear morphology (i.e., condensation or fragmentation) are measured after staining with Hoechst 33342. Mitochondrial membrane potential and mitochondrial mass are measured after staining with MitoTracker® Red. F-actin is measured after staining with an Alexa Fluor® 488 conjugate of phalloidin (Ax488-ph). Changes in the actin cytoskeleton have been used as a potential parameter related to apoptotic changes. […]

[4] = system: ovarian cancer cell lines that do not amplify PVT1; assay: High content imaging for apoptosis (Cellomics Multiparameter Apoptosis 1 HitKit), lines that do not amplify PVT1; type: cell-based, human
Source text: as §3, §4

[5] = system: cell lines that do not amplify or over express PVT1; assay: Apoptosis / cell death after PVT1 siRNA, lines without PVT1 amplification; type: cell-based, human; conditions: cell lines in which PVT1 is not amplified or over expressed
Protocol: as §1, with “Transcript profiling is accomplished using Affymetrix U133A/B arrays processed using the Affymetrix High Throughput Analysis system (installed at LBNL in December 2004 under an Affymetrix early access agreement). Protein profiling is accomplished using reverse phase protein at MD Anderson using lysate array technology in cases where suitable antibodies exist.” left out
Referring again to FIG. 8, an additional measure of apoptosis can include staining with an Alexa Fluor® 488 conjugate of annexin V (Molecular Probes) and staining with propidium iodide (PI). […] An apoptotic index can be assessed by measuring the fraction of “sub diploid” cells after staining for DNA content using PI as illustrated in FIG. 8A. […]

HEYA8 or SKOV3ip1 tumors = assay: Therapeutic study in ovarian tumor xenografts (tumor size); type: in vivo, mice; conditions: siRNA 150 μg/kg twice weekly, paclitaxel 100 μg weekly, four weeks
Protocol: For therapeutic studies, mice were injected with HEYA8 or SKOV3ip1 cells. One week later, mice were treated twice weekly with DOPC-EPHA2 siRNA (150 μg/kg) alone or in combination with weekly paclitaxel (100 μg), for four consecutive weeks.

Row | Compound | cell cycle progression (BrdUrd/DNA distributions) [1] | growth inhibition ([1]; cell lines that do not amplify or over express PVT1) | effect on cell cycle (S phase, BrdU) ([1]; ovarian cancer cell lines not expressing PVT1, FIG. 7C) | apoptosis induced DNA fragments (DNA distribution below the G1/diploid peak) (HEY and CAOV4 cells) | apoptotic blebbing (phase contrast photomicrographs) (HEY and CAOV4 cells; HEY cells, treated 48 hours, FIG. 8) | induction of apoptosis / cell death (HEY and CAOV4 cells) | induction of apoptosis / cell death (HEY and CAOV4 cells; listed as siRNA against PVT1) | induction of apoptosis / cell death (HEY and CAOV4 cells; listed as siRNAs against PVT1) | cell cycle progression (BrdUrd/DNA distributions) [2] | S phase proportion (BrdU) ([2]; cell lines overexpressing PVT1, vs untreated, lipofectamine 2000 and GFP controls, FIG. 7B) | cell proliferation / G1-phase block [2] | cell proliferation / G1-phase block ([2]; listed as siRNAs against PVT1) | apoptotic levels (nuclear morphology, mitochondrial mass/potential, f-actin) ([3]; cell lines that amplify PVT1, FIG. 10C) | F-actin content ([3]; cell lines which overamplify PVT1, after PVT1 siRNA) | F-actin content and thereby apoptosis ([4]; cell lines having no increased PVT1 amplification, FIG. 10A) | apoptotic levels (nuclear morphology, mitochondrial mass/potential, f-actin) ([4]; cell lines that do not amplify PVT1) | induction of apoptosis / cell death [5] | induction of apoptosis / cell death ([5]; listed as siRNA against PVT1) | effect on tumor size (HEYA8 or SKOV3ip1 tumors)
1 | PVT1 siRNA: siRNA against PVT1; sense CAGCCAUCAUGAUGGUACU (SEQ ID NO: 3), antisense AGUACCAUCAUGAUGGCUG (SEQ ID NO: 4) (listed as RNA, chemistry not given here) | not in the unamplified line | do not inhibit growth | does not affect the cell cycle | Apoptosis induced DNA fragments are present after PVT1 inhibition | apoptotic blebbing after siRNA inhibition of PVT1 is apparent | inducing cell death; also recorded: induces apoptosis | induced apoptosis | inducing apoptosis | strongly inhibited | much shorter than in the 3 control columns | inhibit cell proliferation by blocking cell in the G1-phase of the cell cycle; also recorded: blocks cells in the G1 phase of the cell cycle | particularly effective in inhibiting proliferation | increased apoptotic levels, higher than levels of cells treated with paclitaxel | Increased F-actin content | remained low | normal apoptotic levels | do not inhibit growth or induce cell death | no apoptotic response | –
2 | MYC siRNA: siRNA against c-myc; sense GAGGCGAACACACAACGUC (SEQ ID NO: 18), antisense GACGUUGUGUGUUCGCCUC (SEQ ID NO: 19) (listed as RNA, chemistry not given here) | not in the unamplified line | – | – | not after MYC inhibition | – | does not induce apoptosis | – | – | strongly inhibited | – | blocks cells in the G1-phase of the cell cycle | – | – | – | – | – | – | – | –
3 | CC(=O)O[C@H]1C(=O)[C@@]2(C)[C@H]([C@H](OC(=O)c3ccccc3)[C@]3(O)C[C@H](OC(=O)[C@H](O)[C@@H](NC(=O)c4ccccc4)c4ccccc4)C(C)=C1C3(C)C)[C@]1(OC(C)=O)CO[C@@H]1C[C@@H]2O [paclitaxel] | – | – | – | – | – | – | – | – | – | – | – | – | – | – | – | – | – | – | effective in reducing tumor size
